Test results published in publication PMC6718736, “Validation of in vitro methods for human cytochrome P450 enzyme induction: Outcome of a multi-laboratory study” (Toxicology in Vitro, 2019).
Read-outs that look alike come from different tables or passages of the source.

Assays:
CYP2B6 [1] = experiment: CYP2B6 enzyme induction assay in cryopreserved primary human hepatocytes (PHH); assay type: in vitro ADME; details: for Assigned classification CYP2B6: PHH;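 as to Assigned classification CYP2B6: code 1 means positive inducer and 0 means non-inducer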
CYP1A2 [2] = experiment: CYP1A2 enzyme induction assay in cryopreserved primary human hepatocytes (PHH); assay type: in vitro ADME; details: for Prediction in vivo inducer: Cmax/F2 >0.5 criterion; for Assigned classification CYP1A2: PHH;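 as to Assigned classification CYP1A2: code 1 means positive inducer and 0 means non-inducer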
CYP3A4 [3] = experiment: CYP3A4 enzyme induction assay in cryopreserved primary human hepatocytes (PHH); details: for Assigned classification CYP3A4: PHH
CYP3A4 [4] = experiment: CYP3A4 enzyme induction assay in cryopreserved HepaRG cells (midazolam probe, LC/MS); assay type: in vitro ADME, human; details: for Assigned classification CYP3A4: HepaRG; as to Assigned classification CYP3A4: key: 1=Positive=inducer; 0=Negative=non-inducer
CYP = details: cited from earlier work; for CYP induction in vitro (human hepatocytes): CYP isoforms induced, ref Abadie et al. (2009), Richert et al. (2010), Preissner et al. (2010), Hoffmann et al. (2014)
CYP1A2 [5] = experiment: CYP1A2 enzyme induction assay in cryopreserved HepaRG cells (phenacetin probe, LC/MS); assay type: in vitro ADME, human; details: for Prediction in vivo inducer: Cmax/F2 >0.5 criterion; for F2: in vitro concentration producing 2-fold induction; for Assigned classification CYP1A2: HepaRG; as to Assigned classification CYP1A2: key: 1=Positive=inducer; 0=Negative=non-inducer
CYP3A4 [6] = details: cited from earlier work; for CYP induction in vivo literature reference: CYP3A4: human in vivo, CYP named without remark = induced, ref references in the cell, Washington University database, Hoffmann et al. (2014), Pelkonen et al. (2008), Hukkanen et al. (2012)
CYP2B6 [7] = experiment: CYP2B6 enzyme induction assay in cryopreserved HepaRG cells (bupropion probe, LC/MS); assay type: in vitro ADME, human; details: for Prediction in vivo inducer: Cmax/F2 >0.5 criterion; for F2: in vitro concentration producing 2-fold induction; for Assigned classification CYP2B6: HepaRG; as to Assigned classification CYP2B6: key: 1=Positive=inducer; 0=Negative=non-inducer
[8] = cited from earlier work
CYP1A2 [9] = details: cited from earlier work
[10] = human in vivo plasma concentration, normal dose
[11] = human in vivo, normal dose (Table 10)

Structure (SMILES): COc1ccccc1Oc1c(NS(=O)(=O)c2ccc(C(C)(C)C)cc2)nc(-c2ncccn2)nc1OCCO [Bosentan hydrate]
- F2 (CYP2B6 [1]; CYP2B6, PHH): 5.85 µM
- Induction in vitro (CYP2B6 [1]; CYP2B6, PHH): Yes
- Prediction in vivo inducer (CYP2B6 [1]; CYP2B6, PHH): Yes
- Assigned classification CYP2B6 (CYP2B6 [1]; Lab 1, batch 0 6 A): 1
- Assigned classification CYP2B6 (CYP2B6 [1]; Lab 1, batch 4 0 8): 1
- Assigned classification CYP2B6 (CYP2B6 [1]; Lab 1, batch 8 0 8): 1
- Assigned classification CYP2B6 (CYP2B6 [1]; Lab 2, batch 0 6 A): 1
- Assigned classification CYP2B6 (CYP2B6 [1]; Lab 2, batch 4 0 8): 0
- Assigned classification CYP2B6 (CYP2B6 [1]; Lab 2, batch 8 0 8): 1
- Assigned classification CYP2B6 (CYP2B6 [1]; Lab 3, batch 0 6 A): 1
- Assigned classification CYP2B6 (CYP2B6 [1]; Lab 3, batch 4 0 8): 1
- Assigned classification CYP2B6 (CYP2B6 [1]; Lab 3, batch 8 0 8): 1
- Prediction in vivo inducer (CYP1A2 [2]; CYP1A2, PHH, listed as Bosentan): No
- Prediction in vivo inducer (CYP1A2 [2]; CYP1A2, PHH, listed as bosentan): non-inducers
- Induction in vitro (CYP1A2 [2]; CYP1A2, PHH, positive in one donor in each of the three laboratories): No
- Assigned classification CYP1A2 (CYP1A2 [2]; Lab 1, batch 0 6 A): 0
- Assigned classification CYP1A2 (CYP1A2 [2]; Lab 1, batch 4 0 8): 0
- Assigned classification CYP1A2 (CYP1A2 [2]; Lab 1, batch 8 0 8): 0
- Assigned classification CYP1A2 (CYP1A2 [2]; Lab 2, batch 0 6 A): 0
- Assigned classification CYP1A2 (CYP1A2 [2]; Lab 2, batch 4 0 8): 0
- Assigned classification CYP1A2 (CYP1A2 [2]; Lab 2, batch 8 0 8): 1
- Assigned classification CYP1A2 (CYP1A2 [2]; Lab 3, batch 0 6 A): 1
- Assigned classification CYP1A2 (CYP1A2 [2]; Lab 3, batch 4 0 8): 0
- Assigned classification CYP1A2 (CYP1A2 [2]; Lab 3, batch 8 0 8): 0
- F2 (CYP3A4 [3]; CYP3A4, PHH): 0.65 to 1.95 µM
- Induction in vitro (CYP3A4 [3]; CYP3A4, PHH): Yes
- Prediction in vivo inducer (CYP3A4 [3]; CYP3A4, PHH): Yes
- Assigned classification CYP3A4 (CYP3A4 [3]; Lab 1, batch 0 6 A): 1
- Assigned classification CYP3A4 (CYP3A4 [3]; Lab 1, batch 4 0 8): 1
- Assigned classification CYP3A4 (CYP3A4 [3]; Lab 1, batch 8 0 8): 1
- Assigned classification CYP3A4 (CYP3A4 [3]; Lab 2, batch 0 6 A): 1
- Assigned classification CYP3A4 (CYP3A4 [3]; Lab 2, batch 4 0 8): 1
- Assigned classification CYP3A4 (CYP3A4 [3]; Lab 2, batch 8 0 8): 1
- Assigned classification CYP3A4 (CYP3A4 [3]; Lab 3, batch 0 6 A): 1
- Assigned classification CYP3A4 (CYP3A4 [3]; Lab 3, batch 4 0 8): 1
- Assigned classification CYP3A4 (CYP3A4 [3]; Lab 3, batch 8 0 8): 1
- F2 (CYP3A4 [4]; CYP3A4, HepaRG cells): 0.29 µM
- Induction in vitro (CYP3A4 [4]; CYP3A4, HepaRG cells): Yes
- Prediction in vivo inducer (CYP3A4 [4]; CYP3A4, HepaRG cells): Yes
- Assigned classification CYP3A4 (CYP3A4 [4]; Lab 1, batch 20): 1
- Assigned classification CYP3A4 (CYP3A4 [4]; Lab 1, batch 35): 1
- Assigned classification CYP3A4 (CYP3A4 [4]; Lab 1, batch 36): 1
- Assigned classification CYP3A4 (CYP3A4 [4]; Lab 2, batch 20): 1
- Assigned classification CYP3A4 (CYP3A4 [4]; Lab 2, batch 35): 1
- Assigned classification CYP3A4 (CYP3A4 [4]; Lab 2, batch 36): 1
- Assigned classification CYP3A4 (CYP3A4 [4]; Lab 3, batch 20): 1
- Assigned classification CYP3A4 (CYP3A4 [4]; Lab 3, batch 35): 1
- Assigned classification CYP3A4 (CYP3A4 [4]; Lab 3, batch 36): 1
- CYP induction in vitro (human hepatocytes) (CYP): CYP3A4
- Prediction in vivo inducer (CYP1A2 [5]; CYP1A2, HepaRG cells, listed as Bosentan): Yes
- Prediction in vivo inducer (CYP1A2 [5]; CYP1A2, HepaRG cells, listed as bosentan): CYP1A2 induction would be expected
- F2 (CYP1A2 [5]; CYP1A2, HepaRG cells): 2.60 to 7.80 µM
- Induction in vitro (CYP1A2 [5]; CYP1A2, HepaRG cells, positive in one batch in each of the three laboratories): Yes
- Assigned classification CYP1A2 (CYP1A2 [5]; Lab 1, batch 20): 1
- Assigned classification CYP1A2 (CYP1A2 [5]; Lab 1, batch 35): 1
- Assigned classification CYP1A2 (CYP1A2 [5]; Lab 1, batch 36): 1
- Assigned classification CYP1A2 (CYP1A2 [5]; Lab 2, batch 20): 1
- Assigned classification CYP1A2 (CYP1A2 [5]; Lab 2, batch 35): 1
- Assigned classification CYP1A2 (CYP1A2 [5]; Lab 2, batch 36): 1
- Assigned classification CYP1A2 (CYP1A2 [5]; Lab 3, batch 20): 1
- Assigned classification CYP1A2 (CYP1A2 [5]; Lab 3, batch 35): 1
- Assigned classification CYP1A2 (CYP1A2 [5]; Lab 3, batch 36): 0
- Induction in vivo (CYP3A4 [6]; CYP3A4, human in vivo reference classification (Table 11)): Yes
- CYP induction in vivo literature reference: CYP3A4 (CYP3A4 [6]): CYP1A2 NO studies CYP2B6 NO studies CYP 3A4 ([Weber et al., 1999a], [Weber et al., 1999b]; [van Giersbergen et al., 2002a], [van Giersbergen et al., 2002b]; Dingemanse and van Giersbergen, 2004)
- Prediction in vivo inducer (CYP2B6 [7]; CYP2B6, HepaRG cells, listed as Bosentan): Yes
- Prediction in vivo inducer (CYP2B6 [7]; CYP2B6, HepaRG cells, listed as bosentan): predicted as positive inducers
- F2 (CYP2B6 [7]; CYP2B6, HepaRG cells): 2.60 to 7.80 µM
- Induction in vitro (CYP2B6 [7]; CYP2B6, HepaRG cells, positive in one batch in each of the three laboratories): Yes
- Assigned classification CYP2B6 (CYP2B6 [7]; Lab 1, batch 20): 1
- Assigned classification CYP2B6 (CYP2B6 [7]; Lab 1, batch 35): 1
- Assigned classification CYP2B6 (CYP2B6 [7]; Lab 1, batch 36): 0
- Assigned classification CYP2B6 (CYP2B6 [7]; Lab 2, batch 20): 1
- Assigned classification CYP2B6 (CYP2B6 [7]; Lab 2, batch 35): 0
- Assigned classification CYP2B6 (CYP2B6 [7]; Lab 2, batch 36): 0
- Assigned classification CYP2B6 (CYP2B6 [7]; Lab 3, batch 20): 0
- Assigned classification CYP2B6 (CYP2B6 [7]; Lab 3, batch 35): 1
- Assigned classification CYP2B6 (CYP2B6 [7]; Lab 3, batch 36): 0
- Cmax [8, 10]: 5.8 µM
- Cmax [8, 11]: 5.8 µM

Structure (SMILES): O=C1C(CC[S+]([O-])c2ccccc2)C(=O)N(c2ccccc2)N1c1ccccc1 (stereo not shown) [Sulfinpyrazone]
- F2 (CYP2B6 [1]; CYP2B6, PHH): 33 µM
- F2 (CYP3A4 [3]; CYP3A4, PHH): 3.66 µM
- F2 (CYP3A4 [4]; CYP3A4, HepaRG cells): 11 µM
- CYP2B6 induction in human hepatocytes (CYP; CYP2B6, ref Faucette et al., 2004): demonstrated
- CYP induction in vitro (human hepatocytes) (CYP): CYP1A2, CYP2B6, CYP3A4
- F2 (CYP1A2 [5]; CYP1A2, HepaRG cells): 11 µM
- CYP induction in vivo literature reference: CYP3A4 (CYP3A4 [6]): CYP3A4
- F2 (CYP2B6 [7]; CYP2B6, HepaRG cells): 11.0 to 33.0 µM
- Induction in vivo (CYP1A2 [9]; CYP1A2, human, ref Table 1): Yes
- CYP induction in vivo literature reference: CYP1A2 (CYP1A2 [9]; human in vivo, CYP named without remark = induced, ref references in the cell, Washington University database, Hoffmann et al. (2014), Pelkonen et al. (2008), Hukkanen et al. (2012)): CYP1A2
- Cmax [8, 10]: 45 µM
- Cmax [8, 11]: 45 µM
